Results published in PubChem BioAssay (NCI).
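Cells were grown in 96-well plates and exposed to each compound for 48 hours at five concentrations; endpoints were interpolated linearly between bracketing concentrations, or set to the highest concentration if not reached. GI50 = concentration required for 50% inhibition of growth. TGI: concentration producing complete growth inhibition.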

Columns and labels:
Test in all cases: NCI tumour cell line growth inhibition, 48 h
MALME-3M melanoma = test system: MALME-3M melanoma
HCT-116 colon = test system: HCT-116 colon
M14 melanoma = test system: M14 melanoma
LOX IMVI melanoma = test system: LOX IMVI melanoma
SK-MEL-5 melanoma = test system: SK-MEL-5 melanoma
RXF 393 renal = test system: RXF 393 renal
SF-268 CNS = test system: SF-268 CNS
SK-OV-3 ovarian = test system: SK-OV-3 ovarian
HCT-15 colon = test system: HCT-15 colon
SNB-19 CNS = test system: SNB-19 CNS

Structure (SMILES)	GI50 (MALME-3M melanoma) [µM]	TGI (MALME-3M melanoma) [µM]	GI50 (HCT-116 colon) [µM]	TGI (HCT-116 colon) [µM]	GI50 (M14 melanoma) [µM]	TGI (M14 melanoma) [µM]	GI50 (LOX IMVI melanoma) [µM]	TGI (LOX IMVI melanoma) [µM]	GI50 (SK-MEL-5 melanoma) [µM]	TGI (SK-MEL-5 melanoma) [µM]	GI50 (RXF 393 renal) [µM]	TGI (RXF 393 renal) [µM]	GI50 (SF-268 CNS) [µM]	TGI (SF-268 CNS) [µM]	GI50 (SK-OV-3 ovarian) [µM]	TGI (SK-OV-3 ovarian) [µM]	GI50 (HCT-15 colon) [µM]	TGI (HCT-15 colon) [µM]	GI50 (SNB-19 CNS) [µM]	TGI (SNB-19 CNS) [µM]
COc1cccc(/C(COc2ccc3c(c2)oc(=O)c2cc(OC)ccc23)=N/O)c1	> 100	> 100	4.27	> 100	3.62	> 100	7.14	> 100	4.95	80.5	> 100	> 100	9.58	> 100	66.1	> 100	3.99	> 100	3.66	> 100
O=C1[C@H]2ON(c3ccccc3)C(c3ccc(Cl)cc3)[C@H]2C(=O)N1c1ccc(Cc2ccc(N3C(=O)[C@@H]4ON(c5ccccc5)C(c5ccc(Cl)cc5)[C@@H]4C3=O)cc2)cc1 (stereo not given in full)	–	> 100	–	> 100	–	66.8	–	> 100	–	> 100	–	> 100	–	> 100	–	> 100	–	> 100	–	> 100
C[C@]12CC[C@@H]3c4ccc(O)cc4CC[C@H]3[C@@H]1CC[C@@H]2NS(=O)(=O)c1cccc(F)c1	2.52	7.76	2.63	7.33	3.41	11.9	3.09	10.8	1.66	3.15	2.42	7.4	4.1	16	6.12	18.2	2.8	11.3	5.5	18.3
COc1ccc2c(c1)C(C)Cc1c(ncnc1-n1c(C)nc3ccccc31)N2C (stereo not given)	11.3	25.2	3.46	16.2	2.62	15.4	4.42	23.9	3.42	13	2.83	9.21	11.5	39.7	3.53	18.5	1.83	16.9	4.45	23.1
N#C/C(=C/N1CCN(C(=O)c2ccco2)C1=S)C(=O)c1ccccc1	30.7	> 100	9.12	57	14.9	36.8	17.9	> 100	8.25	22.2	4.09	19.4	31.2	93.3	37.4	> 100	5.73	> 100	39.7	> 100
CCOC(=O)c1c[nH]c2oc(/C=N/N3CC(CN4CCOCC4)OC3=O)cc2c1=O (stereo not given)	–	> 100	–	> 100	–	> 100	–	> 100	–	> 100	–	> 100	–	> 100	–	> 100	–	> 100	–	> 100
CC(=O)/C=C/c1ccc(C#Cc2ccccc2)s1	20.5	40.7	3.67	14.9	15.7	29.1	18	31.9	11.1	23.1	16.2	33	17.4	48.9	17.3	31.1	15.6	29	12.7	25.9
COc1ccc2ncn(-c3cc(O[C@H](C)c4ccccc4Cl)c(C(N)=O)s3)c2c1	8.21	> 25	0.021	3.64	0.0164	> 25	0.028	4.83	0.00951	0.54	0.0105	3.78	0.0316	> 25	0.0246	> 25	0.0203	> 25	0.0814	> 25
O=C(Nc1cc(Cl)ccc1Cl)C(=O)C(c1cnc2ccccc2n1)[N+](=O)[O-] (stereo not given)	–	> 100	–	> 100	–	> 100	–	> 100	–	> 100	–	> 100	–	> 100	–	> 100	–	> 100	–	> 100
COc1ccc2c(c1)[C@@]13CCCC[C@H]1[C@@H](C2)N(C)CC3=O	–	33.1	–	29.7	–	31	–	30.9	–	61	–	29.1	–	35.8	–	53.9	–	32.1	–	> 100
